Test results taken from ChEMBL document CHEMBL1124653, “11 beta-nitrate estrane analogues: potent estrogens” (1989).

Molecular target: Estrogen receptor (Rattus norvegicus) (UniProt P06211+Q62986)
Assay: Estrogenic potency in rats by subcutaneous dose relative to estradiol
Assay type: functional

Relative potency	SMILES
4	CC(=O)Oc1ccc2c(c1)CC[C@H]1[C@@H]3CCC(=O)[C@@]3(C)C[C@H](O[N+](=O)[O-])[C@]21O
34	CC(=O)Oc1ccc2c(c1)C[C@@H](C)[C@@H]1[C@@H]2[C@@H](O[N+](=O)[O-])C[C@]2(C)C(=O)CC[C@@H]12 (stereo in doubt; 2b)
7470	CC(=O)Oc1ccc2c(c1)C[C@@H](C)[C@@H]1[C@@H]2[C@@H](O[N+](=O)[O-])C[C@]2(C)C(=O)CC[C@@H]12 (stereo in doubt; 3b)
